Measurements published in patent US12195410B2, “Nitrapyrin compositions for enhancing nitrogen nutrient use efficiency and improving plant growth” (Verdesian Life Sciences U.S., LLC, priority 2018, dated 2025).

Experiments:
[1] = Formation of solutions of nitrapyrin salts at 20% w/w nitrapyrin and grading of solutions; format: physicochemical; set-up: key: 5: Fully dissolved; 4: Mostly dissolved; 3: Mostly not dissolved; 2: Not dissolved; 1: Additional precipitate
Excerpt: Example 2. Formation of Solutions of Nitrapyrin Salts and Grading of Solutions

[2] = Nitrapyrin volatilization, weight loss on heated balance at 100° C.; format: physicochemical; settings: for weight as a percent of original weight: heated balance 100° C.
Protocol: Three materials were placed on a heated balance at 100° C. and had their weights observed every minute for 10 minutes, as a percent of original weight. The materials were: • 1. pure nitrapyrin, • 2. 25% w/w solution of nitrapyrin in sulfolane, and • 3. solution of 25% nitrapyrin salt with equimolar (on acid basis) amount of maleic-itaconic copolymer, also in sulfolane (nitrapyrin/polyanionic polymer salt).
Therefore, the disclosed nitrapyrin salts substantially reduce the volatilization of nitrapyrin.

[3] = solvent Rhodiasolv Polarclean (L)
[4] = solvent propylene carbonate (F)
[5] = solvent tripropylene glycol (E)

SMILES | grading of solution ([1]; solvent Agnique AMD3L (I)) | grading of solution ([1]; solvent Agnique AMD810 (H)) | grading of solution ([1]; solvent PT250 (C)) | grading of solution ([1]; solvent PT700 (B)) | grading of solution ([1]; solvent Rhodiasolv ADMA10 (J)) | grading of solution ([1]; solvent Rhodiasolv ADMA810 (K)) | grading of solution [1, 3] | grading of solution ([1]; solvent dipropylene glycol (A)) | grading of solution [1, 4] | grading of solution ([1]; solvent triacetin (G)) | grading of solution ([1]; solvent triethylene glycol (D)) | grading of solution [1, 5] | further results
CC(O)(P(=O)(O)O)P(=O)(O)O.Clc1cccc(C(Cl)(Cl)Cl)n1.Clc1cccc(C(Cl)(Cl)Cl)n1.Clc1cccc(C(Cl)(Cl)Cl)n1.Clc1cccc(C(Cl)(Cl)Cl)n1 [etidronic] | 5 | 4 | 1 | 4 | 5 | 4 | 5 | 1 | 2 | 2 | 1 | 1 | –
Clc1cccc(C(Cl)(Cl)Cl)n1.Clc1cccc(C(Cl)(Cl)Cl)n1.O=C(O)c1cccc(C(=O)O)c1 [isophthalic] | 3 | 3 | 1 | 2 | 3 | 3 | 3 | 2 | 3 | 3 | 1 | 4 | –
Clc1cccc(C(Cl)(Cl)Cl)n1.Clc1cccc(C(Cl)(Cl)Cl)n1.O=C(O)CC(O)C(=O)O [malic] | 5 | 5 | 1 | 4 | 5 | 5 | 5 | 2 | 3 | 3 | 2 | 2 | –
Clc1cccc(C(Cl)(Cl)Cl)n1 [nitrapyrin without solvent, Nitrapyrin] | – | – | – | – | – | – | – | – | – | – | – | – | weight as a percent of original weight ([2]; experiment time 0 min): 100.00%; weight as a percent of original weight ([2]; experiment time 1 min): 99.20%; weight as a percent of original weight ([2]; experiment time 2 min): 98.56%; weight as a percent of original weight ([2]; experiment time 3 min): 97.92%; weight as a percent of original weight ([2]; experiment time 4 min): 96.00%; weight as a percent of original weight ([2]; experiment time 5 min): 94.87%; weight as a percent of original weight ([2]; experiment time 6 min): 93.75%; weight as a percent of original weight ([2]; experiment time 7 min): 92.63%; weight as a percent of original weight ([2]; experiment time 8 min): 90.87%; weight as a percent of original weight ([2]; experiment time 9 min): 89.90%; weight as a percent of original weight ([2]; experiment time 10 min): 89.10%; nitrapyrin sulfolane volatility ratio, Delta 3-10 ([2]; nitrapyrin without solvent vs. solvent alone, 100° C., 3 to 10 min): 401%; nitrapyrin sulfolane volatility ratio, Delta 4-10 ([2]; nitrapyrin without solvent vs. solvent alone, 100° C., 4 to 10 min): 392%; nitrapyrin sulfolane volatility ratio, Delta 5-10 ([2]; nitrapyrin without solvent vs. solvent alone, 100° C., 5 to 10 min): 393%
O=C(O)CCC(=O)O [succinic] | 5 | 5 | 1 | 4 | 5 | 5 | 5 | 3 | 3 | 2 | 2 | 3 | –
O=C(O)C(O)C(O)C(=O)O (centres unmarked) [tartaric] | 5 | 5 | 1 | 2 | 5 | 5 | 5 | 2 | 2 | 2 | 1 | 2 | –
